Assay results published in patent US20260061082A1, “PROSTATE-SPECIFIC MEMBRANE ANTIGEN TARGETED DEEP-TUMOR PENETRATION OF POLYMER NANODRUGS AND METHODS OF USE THEREOF” (priority 2022, published 2026).
Several values for one entry are separate records, joined by “and”; a condition that tells them apart may be missing. Equal values may be shown once. Read-outs that look alike come from different tables or passages of the source.

Experiments:
[1] = molecular target: T1, PSMA (PSMA+ PC3-Pip cells) (Homo sapiens, UniProt Q04609); assay: 68Ga-PSMA-11 competition radioligand binding assay
T1 construct: host or cells: PC3-Pip (PSMA+ subline of PC-3)
T1 sequence (Q04609 whole entry): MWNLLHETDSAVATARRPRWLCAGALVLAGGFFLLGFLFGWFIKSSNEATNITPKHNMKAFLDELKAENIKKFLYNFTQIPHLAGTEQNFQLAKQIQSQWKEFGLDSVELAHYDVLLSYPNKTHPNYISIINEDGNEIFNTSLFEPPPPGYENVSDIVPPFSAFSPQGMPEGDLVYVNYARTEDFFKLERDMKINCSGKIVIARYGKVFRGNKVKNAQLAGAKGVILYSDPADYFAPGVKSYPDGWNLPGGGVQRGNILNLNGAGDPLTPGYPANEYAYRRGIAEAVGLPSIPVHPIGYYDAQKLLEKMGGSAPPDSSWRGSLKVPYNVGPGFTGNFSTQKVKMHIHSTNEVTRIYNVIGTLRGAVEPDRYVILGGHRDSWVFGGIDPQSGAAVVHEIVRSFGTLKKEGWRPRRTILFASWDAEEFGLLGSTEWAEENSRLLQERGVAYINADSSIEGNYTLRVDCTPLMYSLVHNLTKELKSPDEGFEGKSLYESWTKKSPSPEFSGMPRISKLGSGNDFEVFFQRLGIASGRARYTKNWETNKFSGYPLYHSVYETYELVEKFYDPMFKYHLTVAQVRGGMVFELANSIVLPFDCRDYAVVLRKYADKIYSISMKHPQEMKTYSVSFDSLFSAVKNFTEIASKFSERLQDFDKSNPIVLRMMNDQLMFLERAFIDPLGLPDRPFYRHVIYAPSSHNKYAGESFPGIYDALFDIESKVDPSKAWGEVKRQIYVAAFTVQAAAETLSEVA
Experimental: Competition Radioligand Binding Assay: The nanoparticles were utilized in a ^68Ga-PSMA-11 competition radioligand binding assay to obtain the IC50 values, similar to our prior method. […] PC3-Pip cells were seeded in 96-well plates (˜20 k cells/wells) ˜24 h prior testing in RPMI1640 medium containing with 10% FBS and 1% penicillin/streptomycin. The growth medium was discarded, and the cells were washed with PBS two times. […] The treated cells were incubated for 1 h at room temperature. Then, the radioactive medium was discarded, and the cells were washed twice with PBS. The cells in each well were then treated with NaOH (5N, 250 μL) and incubated for 30 min at 37° C. for lysis. The lysate from each well was collected in vials and analyzed in a Hidex gamma counter to quantify the bound activity. IC50 was calculated by nonlinear regression analysis in Graph-Pad Prism software.
Competition Radioligand Binding Assay: Similar to our prior reported protocol, ^68Ga-PSMA-11 was produced in a ^68Ge/^68Ga generator, and used in a competition radioligand binding assay to acquire the IC50 values for the nanocarriers. […] After 1 h incubated at room temperature, the radioactive medium was removed, and the cells were washed with PBS twice. The cells were lyzed with sodium hydroxide and the radioactivity of the lysate in each well was counted in a Hidex gamma counter. IC50 was determined by nonlinear regression analysis in Prism software (Graph-Pad).

[2] = molecular target: PSMA (Homo sapiens, UniProt Q04609); conditions: previously reported; cited from earlier work
Sequence of PSMA (Q04609 whole entry, species assumed): as the sequence (Q04609 whole entry) above

[3] = system: PC3-Pip metastatic tumors; assay: Ex vivo organ biodistribution of [68Ga]PSMA-11 in PC3-Pip metastatic models after treatment; conditions: Control mice (no 177Lu nanocarrier), individual mice
[4] = system: PSMA+ PC3-Pip subcutaneous tumors; assay: Treatment study in PSMA+ PC3-Pip subcutaneous models; type: in vivo, mice; conditions: 250 μCi single dose
Experimental: The tumor measurements were carried out twice a week, and tumor volumes were calculated by formula V=[length×(width)^2]/2.

[5] = system: PSMA+ PC3-Pip subcutaneous tumors; conditions: prior literature; cited from earlier work
[6] = system: prostate specific antigen; conditions: patients receiving as low as 14 Gy tumor-absorbed dose; cited from earlier work

Molecule [N-]=[N+]=NCCCCCCOC(=O)NCCCC[C@H](NC(=O)N[C@@H](CCC(=O)O)C(=O)O)C(=O)O [Azido-ACUPA] has an IC50 ([1]; Table 2 Experiment 1, unlabeled) of 350 nM and an IC50 ([1]; Table 10 Experiment 2, unlabeled) of 328 nM.

In the case of O=C(O)CC[C@H](NC(=O)N[C@@H](CCCCNC(=O)Nc1ccc(I)cc1)C(=O)O)C(=O)O [PSMA-2], the IC50 ([1]; Table 10 Experiment 1, unlabeled) is given as 25.5 nM and the Ki [2] is given as 0.24 nM.

With O=C([O-])CN(CCN(CC(=O)[O-])Cc1cc(CCC(=O)NCCCCCC(=O)NCCCC[C@H](NC(=O)N[C@@H](CCC(=O)O)C(=O)O)C(=O)O)ccc1[O-])Cc1cc(CCC(=O)O)ccc1[O-].[68Ga+3].[OH3+] [[^68Ga]PSMA-11] the “[^68Ga]PSMA-11 ex vivo organ biodistribution, Blood” value ([3]; day 35) was 0.114 % ID/g and 0.2999 % ID/g and 0.08 % ID/g and 0.1 % ID/g and 0.06 % ID/Organ and 0.2029 % ID/Organ and 0.05813 % ID/Organ and 0.05324 % ID/Organ, the “[^68Ga]PSMA-11 ex vivo organ biodistribution, Bone” value ([3]; day 35) was 0.335 % ID/g and 0.215 % ID/g and 0.2269 % ID/g and 0.3033 % ID/g and 0.08 % ID/Organ and 0.05419 % ID/Organ and 0.04439 % ID/Organ and 0.06845 % ID/Organ and the “[^68Ga]PSMA-11 ex vivo organ biodistribution, Brain” value ([3]; day 35) was 0.046 % ID/g and 0.01371 % ID/g and 0.02404 % ID/g and 0.03404 % ID/g and 0.02 % ID/Organ and 0.004254 % ID/Organ and 0.009255 % ID/Organ and 0.01265 % ID/Organ. For the same molecule, the “[^68Ga]PSMA-11 ex vivo organ biodistribution, Heart” value ([3]; day 35) was 1.938 % ID/g and 1.093 % ID/g and 0.8842 % ID/g and 0.9371 % ID/g and 0.29 % ID/Organ and 0.1577 % ID/Organ and 0.1548 % ID/Organ and 0.1476 % ID/Organ, the “[^68Ga]PSMA-11 ex vivo organ biodistribution, Large Int” value ([3]; day 35) was 0.663 % ID/g and 0.3338 % ID/g and 0.1292 % ID/g and 0.592 % ID/g and 0.09 % ID/Organ and 0.08014 % ID/Organ and 0.03072 % ID/Organ and 0.1919 % ID/Organ and the “[^68Ga]PSMA-11 ex vivo organ biodistribution, Liver” value ([3]; day 35) was 0.855 % ID/g and 0.4054 % ID/g and 0.232 % ID/g and 0.289 % ID/g and 0.62 % ID/Organ and 0.2982 % ID/Organ and 0.1099 % ID/Organ and 0.2246 % ID/Organ. For the same molecule, the “[^68Ga]PSMA-11 ex vivo organ biodistribution, Lung” value ([3]; day 35) was 8.218 % ID/g and 1.814 % ID/g and 1.285 % ID/g and 1.336 % ID/g and 3.12 % ID/Organ and 0.2767 % ID/Organ and 0.1869 % ID/Organ and 0.2393 % ID/Organ, the “[^68Ga]PSMA-11 ex vivo organ biodistribution, Muscle” value ([3]; day 35) was 0.414 % ID/g and 0.2044 % ID/g and 0.2192 % ID/g and 0.1624 % ID/g and 0.2 % ID/Organ and 0.05644 % ID/Organ and 0.04564 % ID/Organ and 0.04172 % ID/Organ and the “[^68Ga]PSMA-11 ex vivo organ biodistribution, Pancreas” value ([3]; day 35) was 0.464 % ID/g and 0.2066 % ID/g and 0.2297 % ID/g and 0.5007 % ID/g and 0.04 % ID/Organ and 0.02448 % ID/Organ and 0.03206 % ID/Organ and 0.07795 % ID/Organ. The “[^68Ga]PSMA-11 ex vivo organ biodistribution, Skin” value ([3]; day 35) was 3.25 % ID/g and 0.586 % ID/g and 0.9817 % ID/g and 0.4433 % ID/g and 1.08 % ID/Organ and 0.2667 % ID/Organ and 0.196 % ID/Organ and 0.2187 % ID/Organ, the “[^68Ga]PSMA-11 ex vivo organ biodistribution, Small Int” value ([3]; day 35) was 0.29 % ID/g and 0.1397 % ID/g and 0.1663 % ID/g and 0.1479 % ID/g and 0.03 % ID/Organ and 0.02347 % ID/Organ and 0.03142 % ID/Organ and 0.02756 % ID/Organ and the “[^68Ga]PSMA-11 ex vivo organ biodistribution, Splcon” value ([3]; day 35) was 22.586 % ID/g and 8.851 % ID/g and 8.108 % ID/g and 16.38 % ID/g. For the same molecule, the “[^68Ga]PSMA-11 ex vivo organ biodistribution, Spleen” value ([3]; day 35) was 1.34 % ID/Organ and 1.068 % ID/Organ and 0.7168 % ID/Organ and 1.253 % ID/Organ, the “[^68Ga]PSMA-11 ex vivo organ biodistribution, Stomach” value ([3]; day 35) was 0.171 % ID/g and 0.3271 % ID/g and 0.1157 % ID/g and 0.09441 % ID/g and 0.16 % ID/Organ and 0.1002 % ID/Organ and 0.07062 % ID/Organ and 0.08055 % ID/Organ and the “[^68Ga]PSMA-11 ex vivo organ biodistribution, Blood” value ([3]; day 50) was 0.212 % ID/g and 0.29 % ID/g and 0.207 % ID/g and 0.07 % ID/g and 0.13 % ID/Organ and 0.26 % ID/Organ and 0.14 % ID/Organ. The “[^68Ga]PSMA-11 ex vivo organ biodistribution, Bone” value ([3]; day 50) was 0.398 % ID/g and 1.082 % ID/g and 0.335 % ID/g and 0.768 % ID/g and 0.06 % ID/Organ and 0.07 % ID/Organ and 0.05 % ID/Organ, the “[^68Ga]PSMA-11 ex vivo organ biodistribution, Brain” value ([3]; day 50) was 0.037 % ID/g and 0.073 % ID/g and 0.024 % ID/g and 0.025 % ID/g and 0.01 % ID/Organ and 0.02 % ID/Organ and the “[^68Ga]PSMA-11 ex vivo organ biodistribution, Heart” value ([3]; day 50) was 1.037 % ID/g and 1.182 % ID/g and 0.615 % ID/g and 0.906 % ID/g and 0.16 % ID/Organ and 0.09 % ID/Organ and 0.14 % ID/Organ and 0.18 % ID/Organ. The “[^68Ga]PSMA-11 ex vivo organ biodistribution, Large Int” value ([3]; day 50) was 0.766 % ID/g and 0.402 % ID/g and 1.093 % ID/g and 1.205 % ID/g and 0.12 % ID/Organ and 0.06 % ID/Organ and 0.24 % ID/Organ and 0.25 % ID/Organ, the “[^68Ga]PSMA-11 ex vivo organ biodistribution, Liver” value ([3]; day 50) was 2.351 % ID/g and 1.41 % ID/g and 0.215 % ID/g and 0.336 % ID/g and 3.36 % ID/Organ and 0.35 % ID/Organ and 0.3 % ID/Organ and 0.41 % ID/Organ and the “[^68Ga]PSMA-11 ex vivo organ biodistribution, Lungs” value ([3]; day 50) was 4.185 % ID/g and 14.472 % ID/g and 1.403 % ID/g and 2.187 % ID/g and 0.55 % ID/Organ and 1.74 % ID/Organ and 0.19 % ID/Organ and 0.34 % ID/Organ. For the same molecule, the “[^68Ga]PSMA-11 ex vivo organ biodistribution, Muscle” value ([3]; day 50) was 0.335 % ID/g and 0.498 % ID/g and 0.405 % ID/g and 0.533 % ID/g and 0.04 % ID/Organ and 0.06 % ID/Organ and 0.11 % ID/Organ and 0.09 % ID/Organ, the “[^68Ga]PSMA-11 ex vivo organ biodistribution, Pancreas” value ([3]; day 50) was 0.568 % ID/g and 0.668 % ID/g and 0.447 % ID/g and 0.649 % ID/g and 0.05 % ID/Organ and 0.07 % ID/Organ and 0.06 % ID/Organ and the “[^68Ga]PSMA-11 ex vivo organ biodistribution, Skin” value ([3]; day 50) was 1.068 % ID/g and 2.397 % ID/g and 0.883 % ID/g and 0.807 % ID/g and 0.62 % ID/Organ and 0.6 % ID/Organ and 0.31 % ID/Organ and 0.33 % ID/Organ. The “[^68Ga]PSMA-11 ex vivo organ biodistribution, Small Int” value ([3]; day 50) was 0.365 % ID/g and 0.631 % ID/g and 0.23 % ID/g and 0.289 % ID/g and 0.05 % ID/Organ and 0.09 % ID/Organ and 0.06 % ID/Organ and 0.07 % ID/Organ, the “[^68Ga]PSMA-11 ex vivo organ biodistribution, Spleen” value ([3]; day 50) was 10.073 % ID/g and 86.889 % ID/g and 5.37 % ID/g and 8.812 % ID/g and 0.58 % ID/Organ and 1.25 % ID/Organ and 0.94 % ID/Organ and 1.1 % ID/Organ and the “[^68Ga]PSMA-11 ex vivo organ biodistribution, Stomach” value ([3]; day 50) was 0.605 % ID/g and 0.424 % ID/g and 0.154 % ID/g and 0.107 % ID/g and 0.34 % ID/Organ and 0.17 % ID/Organ and 0.12 % ID/Organ and 0.11 % ID/Organ.

For O=C([O-])CN1CCN(CC(=O)[O-])CCN(CC(=O)NCC2CCC(C(=O)N[C@@H](Cc3ccc4ccccc4c3)C(=O)NCCCC[C@H](NC(=O)N[C@@H](CCC(=O)O)C(=O)O)C(=O)O)CC2)CCN(CC(=O)[O-])CC1.[177Lu+3] (stereo partly shown) [[^177Lu]PSMA-617], the median survival [4] is given as 46 days, the median survival [5] is given as 51 days and the “reduction of prostate specific antigen” value [6] is given as “more than 50%”.
